Test results published in patent publication US8703419B2, “Method for diagnosis/prognosis of cancers using an epigenetic marker consisting of a specific single CpG site in TTP promoter and treatment of cancers by regulating its epigenetic status” (Korea Research Institute of Bioscience and Biotechnology, priority 2009, dated 2014).

Columns and labels:
Type in all cases: cell-based, human
[1] = test system: TTP expression in PLC/PRF/5 and SK-Hep1 cells; test: TGFβ1-mediated TTP induction with or without AzadC (RT-PCR)
Method: (§1) Total RNA was extracted from the HCC cell lines by using RNeasy mini kit (QIAGEN, USA). Distilled water was added to 1 μg of the total RNA and 1 μl of oligo-d(T) (Invitrogen, USA, 0.5 μg/μl) to make the total volume of the mixture 50 μl, followed by RT-PCR in AccuPower RT-premix (Bioneer, Korea). Before RT-PCR, cDNA was synthesized as follows: at 70° C. for 5 minutes, at 4° C. for 5 minutes, at 42° C. for 60 minutes, at 94° C. for 5 minutes, and at 4° C. for 5 minutes to produce cDNA. PCR was performed by using the obtained cDNA (3˜5 μl) or distilled water (negative control) as a template with the primer set as shown in Table 1 and PCR Master Mix (Promega, USA). PCR conditions were as follows: pre-denaturation at 95° C. for 5 minutes, denaturation at 95° C. for 45 seconds, annealing at 65° C. for […], polymerization at 72° C. for 45 seconds, 35 cycles from denaturation to polymerization, final extension at 72° C. for 5 minutes, and cooling at 4° C. The amplified product was quantified via standardization with β-actin.
TGFβ1 (R&D systems, USA) was treated thereto at the concentration of 5 μg/l for 0, 0.5, 1, 1.5, 3, 6, and 12 hours.

[2] = test system: phospho-SMAD2/3 binding to TRR; test: ChIP analysis of phosphorylated SMAD2/3 binding to TRR; conditions: both SK-Hep1 and PLC/PRF/5 cell lines
Method: (§2) ChIP analysis was performed using a specific assay kit (Millipore, USA) according to manufacturer's specifications. SK-Hep1 and PLC/PRF/5 cells were pre-treated or not treated with AzadC for 72 hours, to which TGFβ1 was additionally treated or not treated. The cells were treated with formaldehyde, leading to the binding of DNA to the protein (DNA conjugated protein), followed by cell lysis. After DNA fractionation, the antibody to RNAPII protein shown in Table 7 was added thereto, followed by reaction at 4° C. for overnight. The antibody was isolated by adding 50 μl of Protein A/G PLUS-Agarose. At this time, the DNA specifically bound to the antibody was purified. The purified DNA proceeded to PCR using the primer sets of Table 8.
The present inventors performed ChIP analysis using the antibodies shown in Table 9 in the same manner as described in Example <6-1> in order to investigate the bindings of phosphorylated SMAD2/3, transcription inhibitor, methyl DNA binding protein, and DNMT (DNA methyltransferase), which are important factors involved in TGFβ1 signal transduction, in TRR (a). At this time, input was a part of cell extract obtained after fixing the cells in formaldehyde and DNA fractionation, which is the status right before immunoprecipitation with antibody.

[3] = test system: RNAPII binding to the TTP locus; test: ChIP analysis of RNAPII binding to the TTP locus; conditions: PLC/PRF/5 cells; regardless of AzadC treatment
Description: To establish the molecular mechanism of epigenetic regulation of TTP, the present inventors estimated the levels of different forms of phosphorylated RNAPII (RNA polymerase II) proteins bound to the TTP locus by ChIP (chromatin immunoprecipitation) analysis, i.e., unphosphorylated form (unP) as a measure of transcriptional initiation, and those phosphorylated at serine 5 (pS5) and serine 2 (pS2) of the carboxy-terminal repeat domain as a measure of promoter escape/capping and transcriptional elongation, respectively.
as §2

c-Myc mRNA = c-Myc mRNA level after TGFβ1 (RT-PCR)
Method: as §1
SK-Hep1 and PLC/PRF/5 cells which had been pre-treated or not treated with AzadC for 72 hours were treated additionally with TGFβ1 for 0, 0.5, 1.0, 1.5, 2.0, and 2.5 hours. Then RT-PCR was performed with the cells by using the primer sets of Table 10 in the same manner as described in Example <1-2>.

[4] = test system: acetylation of histones H3 and H4 at TRR; test: ChIP analysis of histone H3 and H4 acetylation at TRR; conditions: PLC/PRF/5 cells; regardless of AzadC pretreatment; P<0.05
Method: as §2
Chromatin is basically composed of histones and DNA. The histone status, that is, the methylation or acetylation status of histones is involved in the regulation of gene expression. Transcriptional activity is additionally dependent on the acetylation level of histones H3 and H4 in the promoter region. Moreover, TGFβ1-mediated transcription activation requires H3 acetylation (Ross S et al., EMBO J 25:4490-4502, 2006). Therefore, information about the transcriptional activity of the promoter region can be obtained by using the antibody against acetylated histone. […]

[5] = test system: SK-Hep1 and PLC/PRF/5 cells; test: Cell growth by MTT assay and crystal violet staining; conditions: TGFβ1 96 hours
Method: (§3) MTT assay and crystal violet staining were performed with the cells. MTT (methylthiazoletetrazolium; Sigma-Aldrich) assay was performed by the informed technique (Mosmann T, J Immunol Methods 65:55-63, 1983) using μQuant Universal Microplate Spectrophotometer (Biotek Instruments, USA) at 570 nm. For crystal violet staining, the cells were fixed in 10% formaldehyde and stained in 10% crystal violet solution for 10 min at room temperature.

TTP promoter = TTP promoter luciferase reporter assay; conditions: SK-Hep1 cells; no AzadC
Method: To confirm that TTP expression is directly controlled by methylation of the #2 CpG site, the present inventors examined the transcriptional activity of the TTP promoter region in relation to the methylation status of the #2 CpG site using luciferase reporter assays.
Luciferase assays were performed using the Promega Luciferase Assay System (Promega, USA), according to the manufacturer's protocol. Luciferase reporter constructs were generated by amplifying TTP promoter regions from normal human genomic DNA (BioChain, USA) using the primer sets shown in Table 5 according to the method of Example <1-2>.
As a result, wild-type promoter (WT), a single base-substituted promoter (C→T), and TRR-deleted promoter (Del) were constructed. These promoters were cloned into the KpnI/BglII sites of pGL3-basic vector (Promega, USA). Ligated products were amplified in E. coli. After purification, the ligated products were transfected into SK-Hep1 cells by using LipofectAMINE Plus reagent (Invitrogen). Specifically, the luciferase reporter constructs (0.25 μg) were co-transfected with a control plasmid (0.05 μg) encoding renilla into 1×10^5 cells/well in 12-well plates. At that time, AzadC was treated 12 hours before the transfection. After treating with TGFβ1, luciferase activities were measured using a luminometer (Berthold Lumat LB9501, Bad Wildbad, Germany). […]

PLC/PRF/5 cells [6] = test: Cell cycle by FACS after TTP knock-down
Method: (§4) Lentiviral-based short hairpin RNAs (shRNAs) against TTP (Sigma-Aldrich; […] CTTTTT: SEQ. ID. NO. 40) or control shRNA targeting eGFP (Sigma-Aldrich) were transfected into PLC/PRF/5 cells and selected with 1 mg/l puromycin (Invitrogen). The selected PLC/PRF/5 transfectants were additionally treated with TGFβ1 for 0, 0.5, 1.0, 1.5, 2.0, and 2.5 hours. To investigate the half-life of c-Myc mRNA, actinomycin D was treated for 0, 15, 30, […], 60, and 75 minutes, and RT-PCR was performed with the cells.
FACS was performed with the cells treated in Example <7-4>.

PLC/PRF/5 cells [7] = test: Cell growth after TTP knock-down (MTT, crystal violet staining)
Method: as §3, with “SK-Hep1 and PLC/PRF/5 cells were pre-treated or not treated with AzadC for 72 hours, to which TGFβ1 was additionally treated or not treated for 96 hours. MTT assay” for “MTT assay”
as §4
Western blotting was performed with the cells treated in Example <7-4> in the same manner as described in Example <7-2-1> to investigate the levels of c-Mycand p21^Cip1. MTT and crystal violet staining were also performed in the same manner as described in Example <7-2-2>.

[8] = test system: c-Myc mRNA in PLC/PRF/5 cells; test: c-Myc mRNA degradation and half-life after TTP knock-down (RT-PCR, actinomycin D)
Method: as §4

[9] = PLC/PRF/5 cells (#2 CpG not methylated), TGFβ1 5 μg/l
[10] = PLC/PRF/5 cells, both before and after TGFβ1 treatment

Substance	time of peak TTP expression after TGFβ1 treatment [1, 9] [h]	time to increase of TTP expression after TGFβ1 treatment [1, 9] [min]	induction of TTP expression ([1]; SK-Hep1 cells (high #2 CpG methylation), TGFβ1 alone 5 μg/l)	binding of phospho-SMAD2/3 to TRR [2]	binding of RNAPII proteins to the TTP locus [3]	c-Myc level (c-Myc mRNA; PLC/PRF/5 cells, TGFβ1 0-2.5 hours)	c-Myc level decrease (c-Myc mRNA; SK-Hep1 cells, TGFβ1 without AzadC)	acetylation of histones H3 and H4 at TRR (region a) [4]	cell growth [5]	responsiveness of wild-type TTP promoter (WT) to TGFβ1, luciferase (TTP promoter)	size of the G2/M population following TGFβ1 treatment (PLC/PRF/5 cells [6]; PLC/PRF/5 control cells (control shRNA))	growth inhibitory effect of TGFβ (PLC/PRF/5 cells [7])	growth rate (PLC/PRF/5 cells [7])	half-life of c-Myc mRNA ([8]; in the presence of actinomycin D, control 24 min) [min]	c-Myc mRNA degradation after TGFβ1 treatment ([8]; shRNA-mediated knock-down of TTP)	size of the G2/M population following TGFβ1 treatment (PLC/PRF/5 cells [6]; PLC/PRF/5 TTP knock-down cells)	relative size of the G1 and sub G1 populations (PLC/PRF/5 cells [6]; [10])	relative size of the S phase population (PLC/PRF/5 cells [6]; [10])
TGFβ1: Transforming growth factor beta 1, a multifunctional cytokine (R&D systems)	1	≤ 30	not induced	TGFβ1-dependent binding of phospho-SMAD2/3 to TRR was observed	significantly increased the binding of RNAPII proteins	rapidly decreased from 1 hour after TGFβ1 treatment	not in SK-Hep1 cells	significantly increased	phenotypic growth inhibition	not responsive	decreased significantly	–	–	–	–	–	–	–
TTP knock-down: Lentiviral-based short hairpin RNA against TTP (Sigma-Aldrich), SEQ. ID. NO. 40, transfected into PLC/PRF/5 cells (CCGGGCTTCGCCAGAGCATCAGCTTCTCGAGAAGCTGATGCTCTGGCGAAGCTTTTT; expressed or natural sequence)	–	–	–	–	–	–	–	–	–	–	–	blocking the growth inhibitory effect of TGFβ	elevated the growth rate	51	significantly retarded c-Myc mRNA degradation	remained unchanged	decreased	increased
